Test results published in US6974823B2, “Hydantoin derivative compounds, pharmaceutical compositions, and methods of using same” (GPI NIL Holdindgs, Inc., priority 1999, dated 2005).

system: dopaminergic neurons (MPTP lesioning); assay: MPTP model of Parkinson's Disease in mice, concurrent dosing paradigm; type: in vivo; conditions: 10 mg/kg p.o. with MPTP (30 mg/kg i.p.) for 5 days plus 5 further days; male CD1 mice; anti-tyrosine hydroxylase immunostaining at 18 days
Method: MPTP lesioning of dopaminergic neurons in mice was used as an animal model of Parkinson's Disease. Four week old male CD1 white mice were dosed i.p. with 30 mg/kg of MPTP for 5 days. Inventive compounds (4 mg/kg), or vehicle, were administered s.c. along with the MPTP for 5 days, as well as for an additional 5 days following cessation of MPTP treatment (Table IV). Inventive compounds (10 mg/kg), or vehicle, were also administered p.o. along with the MPTP for 5 days, as well as for an additional 5 days following cessation of MPTP treatment (Table V). At 18 days following MPTP treatment, the animals were sacrificed and the striata were dissected and homogenized. Immunostaining was performed on saggital and coronal brain sections using anti-tyrosine hydoxylase Ig to quantitate survival and recovery of dopaminergic neurons. In animals treated with MPTP and vehicle, a substantial loss of functional dopaminergic terminals was observed as compared to non-lesioned animals. In another protocol, test compounds were administered only subsequent to MPTP-induced lesioning. Thus, after animals were treated with MPTP for 5 days, an additional 3 days passed before beginning oral drug treatment on day 8. Animals were treated with inventive compounds (0.4 mg/kg), administered orally, once a day for 5 days total. On day 18, the animals were sacrificed and analyzed as described above. Tables IV and V present the percent recovery of dopaminergic neurons in the first (concurrent dosing) paradigms in animals receiving hydantoin derivative compounds.
Tables IV and V, below, show the remarkable neuroregenerative effects of the inventive hydantoin derivative compounds illustrating the neurotrophic capability of these compounds as a class showing that lesioned animals receiving the hydantoin derivative compounds provide a remarkable recovery of TH-stained dopaminergic neurons.

SMILES | % Recovery of dopaminergic neurons [%]
O=C1[C@@H]2CCCN2C(=O)N1c1ccccc1-c1ccccc1 [Compound 2, (7aS)-2-(2′-Phenyl)phenylperhydropyrrolo[1,2-c]imidazole-1,3-dione] | 38.40

same assay, conditions: Mus musculus, Neuron, po, 432 h; 10 mg/kg p.o. with MPTP (30 mg/kg i.p.) for 5 days plus 5 further days; male CD1 mice; anti-tyrosine hydroxylase immunostaining at 18 days

SMILES | % recovery of dopaminergic neurons at 10 mg/kg [%]
O=C1[C@@H]2CCCN2C(=O)N1c1ccc(C(F)(F)F)cc1 [Compound 3, (7aS)-2-(4-(Trifluoromethyl)phenyl)perhydropyrrolo[1,2-c]imidazole-1,3-dione] | 78.8
O=C1C2CCCN2C(=S)N1Cc1ccccc1 (stereo not shown) [Compound 4, 2-benzyl-3-thioxo-2,5,6,7,7a-pentahydro-2-azapyrrolizin-1-one] | 49.3
O=C1C2CCCN2C(=S)N1CCCc1ccccc1 (stereo not shown) [Compound 7, 2-(3-phenylpropyl)-3-thioxo-2,5,6,7,7a-pentahydro-2-azapyrrolizin-1-one] | 37.5
O=C1C2CCCN2C(=S)N1CCc1ccccc1 (stereo not shown) [Compound 8, 2-(2-phenylethyl)-3-thioxo-2,5,6,7,7a-pentahydro-2-azapyrrolizin-1-one] | 42.5
O=C1C2CCCCN2C(=O)N1Cc1ccccc1 (stereo not shown) [Compound 38, 2-Benzyl-2,5,6,7,8,8a-hexahydro-2-azaindolizine-1,3-dione] | 31.4
O=C1C2CCCCN2C(=S)N1Cc1ccccc1 (stereo not shown) [Compound 39, 2-benzyl-3-thioxo-2,5,6,7,8,8a-hexahydro-2-azaindolizin-1-one] | 11.2
O=C1C2CCCCN2C(=S)N1CCc1ccccc1 (stereo not shown) [Compound 40, 2-(2-phenylethyl)-3-thioxo-2,5,6,7,8,8a-hexahydro-2-azaindolizin-1-one] | 11
CCCCCCCN1C(=O)C2CCCCN2C1=O (stereo not shown) [Compound 41, 2-Heptyl-2,5,6,7,8,8a-hexahydro-2-azaindolizine-1,3-dione] | 8.8
CCCCCCCCN1C(=O)C2CCCCN2C1=O (stereo not shown) [Compound 42, 2-Octyl-2,5,6,7,8,8a-hexahydro-2-azaindolizine-1,3-dione] | 17.4
O=C1C2CCCCN2C(=S)N1CCCc1ccccc1 (stereo not shown) [Compound 43, 2-(3-phenylpropyl)-3-thioxo-2,5,6,7,8,8a-hexahydro-2-azaindolizin-1-one] | 40.1
O=C1C2CCCCN2C(=O)N1c1ccccc1 (stereo not shown) [Compound 72, 2-phenyl-2,5,6,7,8,8a-hexahydro-2-azaindolizine-1,3-dione] | 37.2
CCCCN1C(=O)C2CCCCN2C1=O (stereo not shown) [Compound 74, 2-butyl-2,5,6,7,8,8a-hexahydro-2-azaindolizine-1,3-dione] | 46.4

same assay, conditions: Mus musculus, Neuron, sc, 432 h; 4 mg/kg s.c. with MPTP (30 mg/kg i.p.) for 5 days plus 5 further days; male CD1 mice; anti-tyrosine hydroxylase immunostaining at 18 days

SMILES | % recovery of dopaminergic neurons at 4 mg/kg [%]
O=C1[C@@H]2CCCN2C(=O)N1c1cccc2ccccc12 [Compound 1, (7aS)-2-(1-Naphthyl)perhydropyrrolo[1,2-c]imidazole-1,3-dione] | 32.2

target: FKBP-12 peptidyl-prolyl isomerase (rotamase) (Homo sapiens, UniProt P62942); assay: Ki test procedure: inhibition of FKBP peptidyl-prolyl isomerase (rotamase) activity, chymotrypsin-coupled assay; type: biochemical; conditions: apparent Ki, substrate N-succinyl-Ala-Ala-Pro-Phe-p-nitroanilide
Text: The binding to FBKP12 and inhibition of the peptidyl-prolyl isomerase (rotamase) activity of the compounds used in the inventive methods and pharmaceutical compositions can be evaluated by known methods described in the literature (Harding et al., Nature, 1989, 341:758-760; Holt et al. J. Am. Chem. Soc., 115:9923-9938). These values are obtained as apparent Ki's and are presented for representative compounds in TABLE III.
The cis-trans isomerization of an alanine-proline bond in a model substrate, N-succinyl-Ala-Ala-Pro-Phe-p-nitroanilide, is monitored spectrophotometrically in a chymotrypsin-coupled assay, which releases para-nitroanilide from the trans form of the substrate. The inhibition of this reaction caused by the addition of different concentrations of inhibitor is determined, and the data is analyzed as a change in first-order rate constant as a function of inhibitor concentration to yield the apparent K1 values. […]
The absorbance at 390 nm versus time is monitored for 90 seconds using a spectrophotometer and the rate constants are determined from the absorbance versus time data files.

FKBP-12 peptidyl-prolyl isomerase (rotamase), sequence (P62942 whole entry): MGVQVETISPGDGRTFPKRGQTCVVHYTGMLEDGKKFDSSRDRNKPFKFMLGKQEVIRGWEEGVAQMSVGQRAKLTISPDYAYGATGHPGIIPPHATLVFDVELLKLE

Ki [µM] | SMILES
> 10 | O=C1[C@@H]2CCCN2C(=O)N1c1cccc2ccccc12 [Compound 1, (7aS)-2-(1-Naphthyl)perhydropyrrolo[1,2-c]imidazole-1,3-dione]
> 5 | CCc1ccccc1N1C(=O)C2CCCN2C1=O (stereo not shown) [Compound 6, 2-(2-ethyl)phenyl-2,5,6,7,7a-pentahydro-2-azapyrrolizin-1,3-dione]
